Laboratory results published in patent US6709873B1, “Method for production of antibodies to specific sites of rapamycin” (Isodiagnostika Inc., priority 1997, dated 2004).

How the values were obtained:
MoAb R-1-1 = assay: Inhibition ELISA of MoAb R-1-1; format: binding, mouse; set-up: concentration or dose not given beside the values; settings: tissue culture supernatant
Description: (§1) Inhibition ELISA Protocol
(§2) 1. Use Falcon® Pro-bind™ inununoplates.
(§3) 2. Dilute coating antigen to 1 μg/mL in carbonate-bicarbonate buffer.
(§4) Add 100 μL per well and incubate overnight at 4° C.
(§5) 3. On the same day prepare inhibiting antigen tubes. Aliquot antibodies into glass test tubes. Prepare appropriate antigen concentration in ethanol and add to aliquoted antibody at 10 μL ethanol solution/250 μL antibody.
(§6) Vortex tubes and incubate overnight at 4° C.
(§7) 4. Shake out wells and wash 3× with 200 μL PBS/0.05% TWEEN™ (polyoxyethylene-sorbitol) (v/v) per well.
(§8) 5. Add 200 μL blocking buffer per well (PBS/2% BSA (w/v)).
(§9) Incubate 60 min at room temperature.
(§10) 7. Transfer contents of inhibition tubes to antigen-coated plate, 100 μL per well. Incubate 60 min at 37° C.
(§11) 9. […] Add 100 μL per well and incubate at 37° C. for 60 min.
(§12) 11. […] Add 100 μL per well and incubate in the dark at room temperature. Absorbance can be read at 405 nm at approximately 15-min intervals.
(§13) To further characterize the reactivity of monoclonal antibodies from various clones, inhibition ELISA were performed.

MoAb R-1-5 = assay: Inhibition ELISA of MoAb R-1-5; format: binding, mouse; set-up: concentration or dose not given beside the values; settings: tissue culture supernatant
Description: as §1, §2, §3, §4, §5, §6, §7, §8, §9, §10, §11, §12, §13

[1] = test system: Chicken polyclonal antibody (IgY, Rapa-42-DVS-KLH immunogen); assay: Inhibition ELISA of chicken IgY prep; format: binding; set-up: concentration or dose not given beside the values; settings: Rapa antigen coated ELISA plate
Description: as §1, §2, §3, §4, §5, §6, §7, §8, §9, §10, §11, §12

MoAb R-2-2 = assay: Inhibition ELISA of MoAb R-2-2; format: binding, mouse; set-up: concentration or dose not given beside the values; settings: tissue culture supernatant
Description: as §1, §2, §3, §4, §5, §6, §7, §8, §9, §10, §11, §12, §13

[2] = test system: Rabbit #1 polyclonal antibody (Rapa-42-DVS-KLH immunogen); assay: Inhibition ELISA of rabbit #1 polyclonal serum; format: binding; set-up: concentration or dose not given beside the values; settings: Rapa antigen coated ELISA plate
Description: as §1, §2, §3, §4, §5, §6, §7, §8, §9, §10, §11, §12

MoAb R-3-1 = assay: Inhibition ELISA of MoAb R-3-1; format: binding, mouse; set-up: concentration or dose not given beside the values; settings: tissue culture supernatant
Description: as §1, §2, §3, §4, §5, §6, §7, §8, §9, §10, §11, §12, §13

[3] = test system: Mouse polyclonal antibody Rapa-DVS #9; assay: Inhibition ELISA of mouse polyclonal serum Rapa-DVS #9; format: binding; set-up: concentration or dose not given beside the values
Description: as §1, §2, §3, §4, §5, §6, §7, §8, §9, §10, §11, §12

[4] = test system: Mouse polyclonal antibody Rapa-DVS #7; assay: Inhibition ELISA of mouse polyclonal serum Rapa-DVS #7; format: binding; set-up: concentration or dose not given beside the values
Description: as §1, §2, §3, §4, §5, §6, §7, §8, §9, §10, §11, §12

[5] = test system: Mouse polyclonal antibody Rapa-27 #12 (Rapa-27-ox-DVS-KLH immunogen); assay: Inhibition ELISA of mouse polyclonal serum Rapa-27 #12; set-up: concentration or dose not given beside the values; settings: binding to Rapa-27-HSA
Description: as §1, §2, §3, §4, §5, §6, §7, §8, §9, §10, §11, §12

MoAb R-4-1 = assay: Inhibition ELISA of MoAb R-4-1; format: binding, mouse; settings: tissue culture supernatant
Description: as §1, §2, §3, §4, §5, §6, §7, §8, §9, §10, §11, §12

lymphocytes = assay: In vitro mixed lymphocyte reaction (MLR) assay, two-way lymphocyte proliferation; format: cell-based; settings: 3H-thymidine incorporation
Source text: The MLR assay is useful for identifying rapamycin metabolites with biological (immunosupressive) activity and to quantify this activity relative to the immunosuppressive activity of the parent rapamycin molecule.
An example of a two-way lymphocyte proliferation assay procedure useful for this purpose is as follows:
1. Collect blood from two individuals (20 mls each) and isolate lymphocytes using Ficoll-Paque™ (polysucrose and sodium diatrizoate) (Pharmacia Biotech).
2. Count lymphocytes at 1:10 dilution in 2% acetic acid (v/v).
3. Prepare 10 mls of each lymphocyte populations (A+B) at 1×10^6 cells/ml in DMEM/20% FCS (v/v).
4. Set up a 96 well sterile tissue culture plate, flat bottom (Sarstedt, cat # 83.1835). To each well add:
5. Aliquot 100 μl per well lymphocyte population A
6. Aliquot 100 μl per well lymphocyte population B
7. Aliquot 20 μl per well of drug (rapamycin and rapamycin metabolites M1-5) serially diluted 0 to 1000 μg/L in triplicate in DMEM with no supplements.
8. […]
10. […] Wash cells 3× with 1.0-ml sterile distilled water.
Note: All procedures are done using sterile techniques in a biological flow hood.
11. Place filters in Scintilation vials and add 1.5 mls of ScintiSafe Plus™ 50% scintillation fluid (Fisher, cat #SX-25-5).
12. Measure the amount of radioactivity incorporated in the lymphocytes using a beta counter (Micromedic System Inc., TAURUS™ Automatic Liquid Scintillation Counter) for 1.0 minute.
13. Calculate averages and standard deviations for each drug and express results as: [formula]

[6] = Relative concentrations of Rapa metabolites in pooled whole blood patient samples (LC/MS); format: in vivo; settings: Rapa = 1
Source text: No individual metabolite is found at a concentration greater than 20% of the Rapa parent level.

MoAb R-4-7 = assay: Inhibition ELISA of MoAb R-4-7; format: binding, mouse; settings: tissue culture supernatant
Description: as §1, §2, §3, §4, §5, §6, §7, §8, §9, §10, §11, §12

MoAb R-5-3 = assay: Inhibition ELISA of MoAb R-5-3; format: binding, mouse; settings: tissue culture supernatant
Description: as §1, §2, §3, §4, §5, §6, §7, §8, §9, §10, §11, §12

C=CCC1C=C(C)CC(C)CC(OC)C2OC(O)(C(=O)C(=O)N3CCCCC3C(=O)OC(C(C)=CC3CCC(O)C(OC)C3)C(C)C(O)CC1=O)C(C)CC2O (stereo not shown) [FK met 1, 13-O-Demethyl]
Percent inhibition of MoAb R-1-1 (MoAb R-1-1): 46%
Percent inhibition of MoAb R-1-5 (MoAb R-1-5): 24%
Percent inhibition of Chicken polyclonal antibody [1]: 0%
Percent inhibition of MoAb R-2-2 (MoAb R-2-2): 19%
Percent inhibition of Rabbit #1 polyclonal antibody [2]: 0%
Percent inhibition of MoAb R-3-1 (MoAb R-3-1): 0%

keyhole limpet hemocyanin [KLH]
Percent inhibition of MoAb R-1-1 (MoAb R-1-1): 3%
Percent inhibition of mouse polyclonal antibody Rapa-DVS #9 [3]: 12.5%
Percent inhibition of MoAb R-1-5 (MoAb R-1-5): 10%
Percent inhibition of Chicken polyclonal antibody [1]: 0%
Percent inhibition of MoAb R-2-2 (MoAb R-2-2): 16%
Percent inhibition of Rabbit #1 polyclonal antibody [2]: 0%
Percent inhibition of MoAb R-3-1 (MoAb R-3-1): 0%
Percent inhibition of mouse polyclonal antibody Rapa-DVS #7 [4]: 7.8%
Percent inhibition of mouse polyclonal antibody Rapa-27 #12 [5]: 0%

C=CCC1C=C(C)CC(C)CC(OC)C2OC(O)(C(=O)C(=O)N3CCCCC3C(=O)OC(C(C)=CC3CCC(O)C(O)C3)C(C)C(O)CC1=O)C(C)CC2OC (stereo not shown) [FK met 3, 31-O-Demethyl]
Percent inhibition of MoAb R-1-1 (MoAb R-1-1): 45%
Percent inhibition of MoAb R-1-5 (MoAb R-1-5): 26%
Percent inhibition of Chicken polyclonal antibody [1]: 0%
Percent inhibition of MoAb R-2-2 (MoAb R-2-2): 9%
Percent inhibition of Rabbit #1 polyclonal antibody [2]: 0%
Percent inhibition of MoAb R-3-1 (MoAb R-3-1): 0%

CO[C@@H]1C[C@H](C[C@@H](C)[C@@H]2CC(=O)[C@H](C)/C=C(\C)[C@@H](O)[C@@H](OC)C(=O)[C@H](C)C[C@H](C)/C=C/C=C/C=C(\C)[C@@H](O)C[C@@H]3CC[C@@H](C)[C@@](O)(O3)C(=O)C(=O)N3CCCC[C@H]3C(=O)O2)CC[C@H]1O [M3, 7-O-Demethyl Rapamycin]
Percent inhibition of MoAb R-1-1 (MoAb R-1-1): 32%
Percent inhibition of MoAb R-4-1 (MoAb R-4-1): 85%
Percent inhibition of mouse polyclonal antibody Rapa-DVS #9 [3]: 30.8%
Mixed Lymphocyte Reaction IC50, Mean (lymphocytes): 2.85 ng/mL
Relative Concentration in whole blood [6]: 0.10
Percent inhibition of MoAb R-1-5 (MoAb R-1-5): 56%
Percent inhibition of Chicken polyclonal antibody [1]: 35%
Percent inhibition of MoAb R-2-2 (MoAb R-2-2): 26%
Percent inhibition of Rabbit #1 polyclonal antibody [2]: 15%
Percent inhibition of MoAb R-3-1 (MoAb R-3-1): 92%
Percent inhibition of mouse polyclonal antibody Rapa-DVS #7 [4]: 28.3%
Percent inhibition of mouse polyclonal antibody Rapa-27 #12 ([5]; listed as Met 3): 43%
Percent inhibition of mouse polyclonal antibody Rapa-27 #12 ([5]; listed as metabolite # 3): 42%
Percent inhibition of MoAb R-4-7 (MoAb R-4-7): 67%
Percent inhibition of MoAb R-5-3 (MoAb R-5-3): 37%

C=CCC1C=C(C)CC(C)CC(OC)C2OC(O)(C(=O)C(=O)N3CCCCC3C(=O)OC(C(C)=CC3CCC(O)C(O)C3)C(C)C(O)CC1=O)C(C)CC2O (stereo not shown) [FK met 4, 13,3 1-Didemethyl]
Percent inhibition of MoAb R-1-1 (MoAb R-1-1): 53%
Percent inhibition of MoAb R-1-5 (MoAb R-1-5): 38%
Percent inhibition of Chicken polyclonal antibody [1]: 13%
Percent inhibition of MoAb R-2-2 (MoAb R-2-2): 13%
Percent inhibition of Rabbit #1 polyclonal antibody [2]: 0%
Percent inhibition of MoAb R-3-1 (MoAb R-3-1): 0%

CO[C@H]1C[C@@H]2CC[C@@H](C)[C@@](O)(O2)C(=O)C(=O)N2CCCC[C@H]2C(=O)O[C@H]([C@H](C)C[C@@H]2CC[C@@H](O)[C@H](O)C2)CC(=O)[C@H](C)/C=C(\C)[C@@H](O)[C@@H](O)C(=O)[C@H](C)C[C@H](C)/C=C/C=C/C=C/1C [M5, 32,41-Demethyl Rapamycin]
Percent inhibition of MoAb R-1-1 (MoAb R-1-1): 29%
Percent inhibition of MoAb R-4-1 (MoAb R-4-1): 88%
Percent inhibition of mouse polyclonal antibody Rapa-DVS #9 [3]: 37.3%
Mixed Lymphocyte Reaction IC50, Mean (lymphocytes): 4.67 ng/mL
Relative Concentration in whole blood [6]: 0.02
Percent inhibition of MoAb R-1-5 (MoAb R-1-5): 44%
Percent inhibition of Chicken polyclonal antibody [1]: 35%
Percent inhibition of MoAb R-2-2 (MoAb R-2-2): 10%
Percent inhibition of Rabbit #1 polyclonal antibody [2]: 16%
Percent inhibition of MoAb R-3-1 (MoAb R-3-1): 94%
Percent inhibition of mouse polyclonal antibody Rapa-DVS #7 [4]: 39.8%
Percent inhibition of mouse polyclonal antibody Rapa-27 #12 [5]: 0%
Percent inhibition of MoAb R-4-7 (MoAb R-4-7): 87%
Percent inhibition of MoAb R-5-3 (MoAb R-5-3): 46%

CO[C@H]1C[C@@H]2CC[C@@H](C)[C@@](O)(O2)C(=O)C(=O)N2CCCC[C@H]2C(=O)O[C@H]([C@H](C)C[C@@H]2CC[C@@H](O)[C@H](O)C2)CC(=O)[C@H](C)/C=C(\C)[C@@H](O)[C@@H](OC)C(=O)[C@H](C)C[C@H](C)/C=C/C=C/C=C/1C [M4, 41-O-Demethyl Rapamycin]
Percent inhibition of MoAb R-1-1 (MoAb R-1-1): 30%
Percent inhibition of MoAb R-4-1 (MoAb R-4-1): 82%
Percent inhibition of mouse polyclonal antibody Rapa-DVS #9 [3]: 28.6%
Mixed Lymphocyte Reaction IC50, Mean (lymphocytes): 5.9 ng/mL
Relative Concentration in whole blood [6]: 0.10
Percent inhibition of MoAb R-1-5 (MoAb R-1-5): 57%
Percent inhibition of Chicken polyclonal antibody [1]: 18%
Percent inhibition of MoAb R-2-2 (MoAb R-2-2): 71%
Percent inhibition of Rabbit #1 polyclonal antibody [2]: 28%
Percent inhibition of MoAb R-3-1 (MoAb R-3-1): 96%
Percent inhibition of mouse polyclonal antibody Rapa-DVS #7 [4]: 40.1%
Percent inhibition of mouse polyclonal antibody Rapa-27 #12 [5]: 37%
Percent inhibition of MoAb R-4-7 (MoAb R-4-7): 54%
Percent inhibition of MoAb R-5-3 (MoAb R-5-3): 47%

C=CCC1C=C(C)CC(C)CC(O)C2OC(O)(C(=O)C(=O)N3CCCCC3C(=O)OC(C(C)=CC3CCC(O)C(OC)C3)C(C)C(O)CC1=O)C(C)CC2OC (stereo not shown) [FK met 2, 15-O-Demethyl]
Percent inhibition of MoAb R-1-1 (MoAb R-1-1): 57%
Percent inhibition of MoAb R-1-5 (MoAb R-1-5): 36%
Percent inhibition of Chicken polyclonal antibody [1]: 0%
Percent inhibition of MoAb R-2-2 (MoAb R-2-2): 16%
Percent inhibition of Rabbit #1 polyclonal antibody [2]: 0%
Percent inhibition of MoAb R-3-1 (MoAb R-3-1): 0%

C=CCC1C=C(C)CC(C)CC(O)C2OC(O)(C(=O)C(=O)N3CCCCC3C(=O)OC(C(C)=CC3CCC(O)C(O)C3)C(C)C(O)CC1=O)C(C)CC2OC (stereo not shown) [FK met 5, 15,3 1-O-Didemethyl]
Percent inhibition of MoAb R-1-1 (MoAb R-1-1): 46%
Percent inhibition of MoAb R-1-5 (MoAb R-1-5): 26%
Percent inhibition of Chicken polyclonal antibody [1]: 0%
Percent inhibition of MoAb R-2-2 (MoAb R-2-2): 13%
Percent inhibition of Rabbit #1 polyclonal antibody [2]: 0%
Percent inhibition of MoAb R-3-1 (MoAb R-3-1): 0%
